In patent publication US12410358B2, “Organic acid-based enhanced waterflooding” (UNIVERSITY OF WYOMING, priority 2018, dated 2025):

Assays:
[1] = Interfacial shear viscoelasticity, double-wall ring rheometer; assay type: physicochemical; conditions: for tan (δ) / Fractional G′ / Fractional G″: 1 mM acid in 1% Na2SO4 brine, 25° C.; for tan (δ): compared to the brine; for Fractional G′ / Fractional G″: compared to the brine viscoelastic moduli
Procedure: Rheological experiments were conducted with the GB oil and a low-salinity brine (1% Na2SO4) spiked with low concentration of organic acids using a TA Instruments AR-G2 Rheometer with a double-wall ring geometry. Measurement of the oil-water interface was performed using the rheometer, as the ring of the rheometer was placed directly on the denser phase, with the second phase added carefully at the end. The shear viscoelasticities were recorded at 25° C. Measurements were run in oscillatory time-sweep mode to measure the shear viscoelastic moduli, as the oscillatory time-sweep mode has high sensitivity to measure low frequency and torque values.
The stress response of the oil-water interface can be calculated utilizing Equation 1: σ(t)=γo[G′(ω)sin(ωt)+G″(ω)cos(ωt)] where σ represents the shear stress, t represents the time, γo is the amplitude of the strain, G′(ω) is the elastic or real modulus, and G″(ω) is the viscous or imaginary modulus. The elastic modulus is the instantaneous response to stress and the viscous modulus is the delayed response quantified by a phase angle. The tangent of this angle is represented by the following equation: […]
Experiments were run in the linear viscoelastic region, determined with a strain sweep test at fixed frequency on individual samples to determine appropriate values for each parameter in the following experiments.
The rheometer was cleaned with toluene and methanol and then air-dried; the Pt/Ir ring of the rheometer was flamed to remove residual contaminants and salts before each experiment. The rheometer was positioned on an air-table and was calibrated for geometry, inertia, and friction before each experiment was prepared. The brine was filtered through a 0.45 μm SFCA filter and examined for bubbles before the ring was lowered to sit at the interface. Next, the oil was added on top of the brine in a manner selected to avoid disruption of the interface formed. Without moving the table, the setup was covered and allowed to run for a minimum of five days. The viscoelasticity was measured several times during the first day and then routinely once a day for the remainder of the experiment duration. The temperature was controlled with the Peltier plate beneath the sample holder. When cleaning the rheometer at the end of the experiment, care was taken to recover as much aqueous phase as possible for NMR and pH measurements.
The interfacial viscoelasticity measurements were conducted on samples having a ratio of two parts aqueous phase to one part oil phase. […]

[2] = Emulsion stability by TD-NMR droplet-size distribution; assay type: physicochemical; conditions: for Δd3 day 5 / Δσ day 5 / Δd3 day 14 / Δσ day 14: 1 mM acid in 1% Na2SO4, 1:1 with GB oil; for Δd3 day 5 / Δσ day 5: change days 1-5; for Δd3 day 14 / Δσ day 14: change days 1-14; for effect on emulsion stability compared to 1% Na2SO4 brine: 1 mM acid, day 14
Procedure: Dispersions were prepared in a 1:1 volume ratio with GB oil to each acid (1 mM) in the 1% Na2SO4 brine. The dispersions were emulsified via […] at 6500 rpm for 30 seconds in an Ultra Turrax T25 basic (IKA-Werke) homogenizer. The emulsions were then homogenized for 3 minutes at 6500 rpm to obtain homogeneous droplets for characterization.
Water-in-oil emulsions were prepared for each acid and the time evolution was tracked on a Bruker Biospin Minispec mq20 time domain nuclear magnetic resonance (TD-NMR). This instrument provides information about the polydispersity (σ) of the system and the diameter size (di). The variable i can represent either the diameter in terms of the number of droplets (1=0) or the diameter in terms of average volume of the droplets (1=3). The unimodal droplet size distribution for the created emulsions can be calculated according to Equation 2:
[formula] where qi is the log-normal distribution, d50,i is the geometric mean diameter. Bruker software is used for the NMR and that calculated the droplet size distribution. The change in diameter in relation to the volume is useful because it is indicative of coalescence.
This technique is advantageous as it is non-invasive and independent of the opacity of the dispersion. […] Droplet coalescence and emulsion stability was inferred by tracking the droplet-size distribution density over time.
The influence of the specific acids on coalescence was evaluated with restricted diffusion in a time-domain nuclear magnetic resonance (TD-NMR) system. […] Measurements were recorded within the first hour after emulsification, and every day for days 1-5, and then on days 7, 10, and 14. The TD-NMR system calculates a median diameter, which relates to the number of droplets present (d0) and the volume of the droplets present (d3). […] The Bruker system software also provides a standard deviation, σ, which is applicable for both diameter values and relates to the polydispersity of the droplets in solution.

[3] = Solubility of acids in brine; assay type: physicochemical; conditions: no pH adjustment
Procedure: A 1% Na2SO4 brine, equivalent to 2.24 mM (low salinity) and an ionic strength of 6.7 mM, was prepared and vacuumed for two hours before use. The brine was selected because it served as the baseline aqueous phase for the coreflooding experiments. Brine aliquots were then mixed with each of the 18 acid solutions at various concentrations and mixed into solution for several days. […] No adjustments were made to the brine to bring the acids into solution; at higher brine pH, larger naphthenic acids (NAs) solubilize more readily, while smaller ones can often dissolve at neutral pH. At higher pH, the potential for micelle and reverse micelle formation increases. However, embodiments described herein relate to acids that partition naturally, rather than those coaxed from the oil phase, so pH adjustments were not made in order to examine the influence of the acids in the system.
Additionally, the naphthenic acid mixture (NAmix1) was analyzed.

[4] = Oil bridge neck diameter / snap-off experiment; conditions: 1 mM acid in 1% Na2SO4, GB oil bridge; for delay of snap-off / bridge failure compared to low-salinity brine: 1 hour aging
Description: A bridge technique was executed on a modified First Ten Angstroms (FTA) 1000 pendant drop instrument using two opposing vertical needles. The slenderness ratio (A) is defined as the length of the bridge (L) divided by the diameter of the needle (D). A large slenderness ratio is associated with an unstable bridge. The bridge goes through at least two processes. First the oil is bridged between the opposing needles, suspended in the brine and aged up to one hour. While the bridge is aging, the interfacial elasticity increases and the interfacial tension decreases. There are no disruptions or deformation of the system, and thus the surface stress is equal to the interfacial tension. After aging, the bridge goes under the second process during which the oil comprising the bridge is removed at 0.1 μL/s. This response is tracked until bridge failure. During this process, due to the increase in the elasticity of the interface, an extensional longitudinal and compressive circumferential surface stress contribute to the process. The behavior of the oil when the bridge breaks is indicative of the dominant environment of the oil-water interface—e.g., whether the environment is characteristic of an elastic break or an inelastic break. An enhanced elastic break, resulting from the formation of a thick interface, can appear as pointy interface and can show very little recovery of its initial shape, while a viscous break can reform the initial appearance of the oil before the formation of the bridge as shown in FIGS. 8A-8C. FIG. 8A is an image of the bridge initially before any aging or oil removal. FIG. 8B is an image showing the behavior observed in an inelastic break, and FIG. 8C is an image showing the behavior observed in an elastic break. Increased viscoelasticity suppresses interfacial snap-off and helps to sustain a more continuous oil phase. An elastic bridge is much less prone to break and therefore can pull more volumes of oil out (more production).
The behavior of the bridge is monitored with an APPRO camera at a frame rate of 60 frames per second and its geometry is tracked by measuring the neck diameter (ND). The neck diameter is the lowest radius along the vertical axis. The critical neck diameter (CND) is the value corresponding to the last frame of the connected bridge. The ratio of CND/ND is a stability proxy, and assumptions are made that a value close to zero indicates prevalent elastic forces.

tan (δ) ([1]; GB oil)	Fractional G′ ([1]; GB oil)	Fractional G″ ([1]; GB oil)	Δd3 day 5 [2]	Δσ day 5 [2]	Δd3 day 14 [2]	Δσ day 14 [2]	effect on emulsion stability compared to 1% Na2SO4 brine [2]	G′ value (elastic modulus) ([1]; 1 mM acid, day 5, GB oil)	G″ value (viscous modulus) ([1]; 1 mM acid, day 5, GB oil)	interface relative to un-acidified brine values ([1]; 10 mM acid, day 5, GB oil)	concentration at which G′ and G″ plateau (acid believed to form aggregates) ([1]; GB oil, 1% Na2SO4 brine)	aging time after which solid-like film (skin) was visible [4]	bridge break behaviour (elastic / inelastic) [4]	delay of snap-off / bridge failure compared to low-salinity brine [4]	aging time after which skin was observed [4]	Compound	solubility in 1% Na2SO4 brine [3]
189%	25.8%^	48.8%	1.315	0.1998	1.6025	0.3463	does not encourage coalescence									Cc1ccc(C(=O)O)cc1 [NA12, p-toluic acid]	
114%	53%	47%	1.045	0.1325	1.115	0.1722	stabilize the emulsions									O=C(O)[C@@H]1CCCN1 [L-Proline, L-proline]	
127%	42%	53.5%	1.5395	0.1263	1.572	0.2238	stabilize the emulsions	about 100 mPa	about 35 mPa	21.2%	above 2.5 mM	about 10 minutes	asymmetric elastic skin	delayed bridge failure the longest		O=C(O)C1CCCCC1 [NA18, cyclohexane carboxylic acid]	especially soluble at higher concentrations
90.6%	151%	137%	1.3475	1.3475	1.4425	0.259	stabilize the emulsions						more elastic break	delays snap-off	~12 h	O=C(O)C1CCCC1 [NA14, cyclopentane carboxylic acid]	
